From patent publication US20190230931A1, “SURFACE TREATMENTS” (priority 2014, published 2019)
In brackets after ≈: the same amount, converted by molar mass. Like-named read-outs stand apart in the source and are kept apart here.

Tests used:
Format in all cases: cell-based
[1] = system: Staphylococcus aureus clinical isolate; test: Susceptibility of clinical isolates by broth microdilution (MIC/MBC); settings: for MBC: broth microdilution and plating, read-out: Minimum bactericidal concentration (MBC); for MIC: broth microdilution, 37° C., 18 hours, read-out: Minimum inhibitory concentration (MIC)
Method: (§1) Frozen stocks of the Staphylococcus sp. inocula were thawed at 37° C. for 10 minutes and vortexed before plating on blood agar and incubating at 37° C. for 18 hours. Single colonies were used to inoculate a volume of 10 mL of Mueller-Hinton Broth (MHB) and incubated at 37° C. for 18 hours in a shaking incubator (200 rpm). A volume of 100 μL of the actively growing culture was then used to inoculate a volume of 100 mL of MHB and incubated at 37° C. for 6½ hours. […] A volume of 100 μL of each dilution step was spread on plate count agar (PCA) plates and incubated at 37° C. for 18 hours to confirm viable cell numbers. The dilution to 10^−7 was used in the following steps.
(§2) The susceptibility of clinical isolates of Staphylococcus aureus, Escherichia coli and Pseudomonas aeruginosa to the constructs designated Spm-Ad-DOPE (9a) and NCSeCH2CO—CMG(2)-Ad-DOPE was determined by broth microdilution. Actively growing cultures of each clinical isolate were prepared as described above to obtain cultures with the following turbidities (OD600):
(§3) Serial dilutions of each culture to 10^−6 were prepared and used as inocula. Volumes of 50 μL of each dilution was spread on PCA plates and incubated at 37° C. for 18 hours. A two-fold dilution series for each of the two constructs, spermine (2) and selenous acid (H2SeO3) were prepared in sterile 96-well plates. Volumes of 50 μL of inocula were dispensed into a well containing a volume of 50 μL of the serially diluted construct, spermine (2) or selenous acid (H2SeO3). Following gentle mixing the plates were incubated in the dark at 37° C. for 18 hours (200 rpm). Minimum inhibitory concentrations (MIC) were thereby observed and minimum bactericidal concentrations (MBC) determined by plating aliquots from each well.

[2] = system: Escherichia coli clinical isolate; test: as above; settings: for MBC: broth microdilution and plating, read-out: Minimum bactericidal concentration (MBC); for MIC: broth microdilution, 37° C., 18 hours, read-out: Minimum inhibitory concentration (MIC)
Method: as §1, §2, §3

[3] = system: Pseudomonas aeruginosa clinical isolate; test: as above; settings: for MBC: broth microdilution and plating, read-out: Minimum bactericidal concentration (MBC); for MIC: broth microdilution, 37° C., 18 hours, read-out: Minimum inhibitory concentration (MIC)
Method: as §1, §2, §3

[4] = system: Red blood cells (RBCs; group O); test: Adherence of red blood cells to treated microplate well surfaces
Method: A stock solution of the construct designated Spm-Ad-DOPE (9a) was prepared in methanol at a concentration of 10 mg/mL. The stock solution was diluted to a concentration of 250 μg/mL in methanol and 25 μL volumes of the diluted stock solutions dispensed into each of the round bottomed wells of a multi-well microplate (Corning Inc.). The plates were allowed to dry before washing the wells 6 times with deionized water.
Red blood cells (RBCs; group O, up to 2 weeks old) were washed and re-suspended at a concentration of 1% packed cell volume (pcv) in phosphate-buffered saline (PBS). A 50 μL volume of the suspension of RBCs was dispensed into each of the wells and incubated for 1 hour at room temperature before washing 6 times with PBS. The RBCs were fixed by adding a 50 μL volume of a solution of glutaraldehyde in PBS at a concentration of 2.5% (w/v) and incubating for 10 minutes before washing each well with water and allowing to dry. The RBCs were lysed by adding a 50 μL volume of deionized water and incubating for 10 minutes before discarding the water and allowing to dry.
For scanning electron microscopy (SEM) the bottom of each well was cut from the plate and the treated surface sputter coated with platinum prior to imaging.
A two-fold serial dilution from each of the first wells was then performed. […]

Structure (SMILES) | MBC [1] | MIC [1] | MBC [2] | MIC [2] | MBC [3] | MIC [3] | MBC ([1]; Staphylococcus aureus) | MIC ([1]; Staphylococcus aureus) | MBC ([2]; Escherichia coli) | MIC ([2]; Escherichia coli) | MBC ([3]; Pseudomonas aeruginosa) | MIC ([3]; Pseudomonas aeruginosa) | Attachment of RBCs to treated wells ([4]; spermine alone) | Attachment of RBCs to treated wells ([4]; spermine alone in water)
O=[Se](O)O [H2SeO3, selenous acid] | >1985.01 µM | 1985.01 µM (≈ 256 µg/mL) | >1985.01 µM | 1985.01 µM (≈ 256 µg/mL) | >1985.01 µM | >1985.01 µM |  |  |  |  |  |  |  | 
NCCCNCCCCNCCCN [Spermine (2), spermine] |  |  |  |  |  |  | 947 µM (≈ 192 µg/mL) | 473 µM (≈ 95.8 µg/mL) | 118 µM (≈ 23.9 µg/mL) | 118 µM (≈ 23.9 µg/mL) | > 3790 µM | 3790 µM (≈ 766 µg/mL) | not uniform or reproducible | No cells were observed to adhere to the surface
